This is an account of results in US7666875B2, “Hydantoin compounds” (Eisai R&D Management Co., Ltd., priority 2005, dated 2010).

Structures are written as SMILES.

The target of the first assay is T1, human T-bet (Homo sapiens, UniProt Q9UL17).
T1 construct: expressed in transfected cells; host or cells: engineered HEK cells (HEKT-bet)
T1 sequence (Q9UL17 1-535): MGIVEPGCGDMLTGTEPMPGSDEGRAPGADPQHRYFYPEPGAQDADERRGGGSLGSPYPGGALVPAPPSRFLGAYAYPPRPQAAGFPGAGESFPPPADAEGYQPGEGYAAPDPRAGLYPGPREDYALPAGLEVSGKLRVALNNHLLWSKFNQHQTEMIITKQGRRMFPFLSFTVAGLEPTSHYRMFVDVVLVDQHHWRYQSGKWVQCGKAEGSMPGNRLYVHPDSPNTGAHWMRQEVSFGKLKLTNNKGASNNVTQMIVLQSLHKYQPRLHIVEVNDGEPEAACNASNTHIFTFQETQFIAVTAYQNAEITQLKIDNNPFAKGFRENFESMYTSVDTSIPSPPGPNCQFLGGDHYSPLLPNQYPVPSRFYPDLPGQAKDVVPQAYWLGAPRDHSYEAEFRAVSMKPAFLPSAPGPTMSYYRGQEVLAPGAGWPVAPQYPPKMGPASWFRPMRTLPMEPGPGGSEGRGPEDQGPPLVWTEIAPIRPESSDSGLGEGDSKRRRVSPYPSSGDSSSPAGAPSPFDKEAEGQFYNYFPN
Description: HEKT-bet-luc assay (T-bet dependent luciferase reporter in engineered HEK cells). It is filed as cell-based. To be noted: Table 2; HEKT-bet cells, compound 24 hours; IC50 normalized to reference ER-213038; read-out: IC50. On the procedure: HEKT-bet-luc assay: This assay measures a T-bet dependent reporter (luciferase) activity in engineered HEK cells that express a human T-bet and a T-box responsive element driving luciferase reporter. HEKT-bet cells were plated at 2×10^4/well in 96-well plate and compound was added into cell culture for 24 hours. Luciferase activity was measured by adding 50 μl of Steady-Glo reagent (Promega) and samples were read in Victor V reader (PerkinElmer). The IC50 values were calculated utilizing a maximum value corresponding to the amount of luciferase in the absence of a test compound and a minimum value corresponding to a test compound value obtained at maximum inhibition.
Determination of Normalized HEKT-bet IC50 values: Compounds were assayed in microtiter plates. Each plate included a reference compound which was ER-213038. The un-normalized IC50 value for a particular compound was divided by the IC50 value determined for the reference compound in the same microtiter plate to provide a relative potency value. The relative potency value was then multiplied by the established potency of the reference compound to provide the normalized HEKT-bet IC50 value. […] The IC50 values provided herein were obtained using this normalization method.
In general terms: A reporter such as luciferase makes a cellular process visible.
As for `COc1cc(CN2CCC3(CC2)C(=O)N(C/C=C/c2ccccc2)C(=O)N3CCO)cc(OC)c1` [compound 45], the IC50 was found to be 62 nM.

The same assay, now with this note: Table 3; HEKT-bet cells, compound 24 hours; IC50 normalized to reference ER-213038; read-out: IC50.
On to `COCCN1C(=O)N(Cc2ccc3cc4ccccc4cc3c2)C(=O)C12CCN(Cc1ccccc1)CC2` [Example 96], for which the IC50 came to 1030 nM. Still for that read-out and setting: then `COCCN1C(=O)N(Cc2cccc(OC)c2)C(=O)C12CCN(Cc1cc(C)c(C)s1)CC2` [Example 91], with 845 nM; and `COCCN1C(=O)N(Cc2cccc(OC)c2)C(=O)C12CCN(C1CCc3ccc(C)cc31)CC2` (stereo not drawn) [Example 106], with 1420 nM; and `COCCN1C(=O)N(CCCCCCCCO)C(=O)C12CCN(Cc1ccccc1)CC2` [Example 93], with 914 nM.

`O=C1N(C/C=C/c2ccccc2)C(=O)C2(CCN(Cc3cccc4ccccc34)CC2)N1CCCO` [Example 88]: the IC50 stood at 798 nM.

As for `COCCN1C(=O)N(Cc2cccc(OC)c2)C(=O)C12CCN(Cc1ccc3ccc4cccc5ccc1c3c45)CC2` [Example 115], the IC50 is 1810 nM. For `COCCN1C(=O)N(Cc2cccc(OC)c2)C(=O)C12CCN(Cc1cccc(-c3ccc4[nH]ccc4c3)c1)CC2` [Example 92], the IC50 was 868 nM. The same measure, in the same setting: then `COCCN1C(=O)N(Cc2ccc(C(=O)c3ccccc3)cc2)C(=O)C12CCN(Cc1ccccc1)CC2` [Example 100], with 1240 nM; and `COCCN1C(=O)N(Cc2cccc(OC)c2)C(=O)C12CCN(Cc1cccc(-c3ccsc3)c1)CC2` [Example 85], with 750 nM; and `COCCN1C(=O)N(CC(=O)c2ccc3ccccc3c2)C(=O)C12CCN(Cc1ccccc1)CC2` [Example 107], with 1460 nM.

The same assay, now with this note: Table 4; HEKT-bet cells, compound 24 hours; IC50 normalized to reference ER-213038; read-out: IC50.
`CCN1C(=O)N(Cc2cccc(OC)c2)C(=O)C12CCN(Cc1cccc(C)c1)CC2` [Example 266]: the IC50 is 510 nM.

With `CN1C(=O)N(C/C=C/c2ccccc2)C(=O)C12CCN(Cc1cccc3ccccc13)CC2` [Example 184], the IC50 is 235 nM. With `CCOc1ccc(OCC)c(CN2CCC3(CC2)C(=O)N(Cc2cccc(OC)c2)C(=O)N3CCOC)c1` [Example 271], the IC50 was determined as 522 nM.

Take `CNc1cccc(CN2CCC3(CC2)C(=O)N(Cc2cccc(OC)c2)C(=O)N3CCOC)c1` [Example 298]: the IC50 came to 589 nM. Turning to `COCCN1C(=O)N(Cc2cccc(OC)c2)C(=O)C12CCN(Cc1cc(C)ccc1C)CC2` [Example 150], the IC50 was 147 nM.

As to `COCCN1C(=O)N(Cc2cc(OC)cc(OC)c2)C(=O)C12CCN(Cc1cccc(OC)c1)CC2` [Example 237], the IC50 turned out to be 414 nM. In the case of `COCCN1C(=O)N(C/C=C/c2ccc(C)cc2)C(=O)C12CCN(Cc1ccccc1)CC2` [Example 190], the IC50 came out at 251 nM.

With `COCCN1C(=O)N(Cc2cccc(OC)c2)C(=O)C12CCN(Cc1ccc(C)c3ccccc13)CC2` [Example 127], the IC50 stood at 82 nM.

Consider `COCCN1C(=O)N(CCCOc2ccccc2)C(=O)C12CCN(Cc1ccc3ccccc3c1)CC2` [Example 232], for which the IC50 was determined as 385 nM. Same read-out and setting: then `CCN1C(=O)N(Cc2ccc3ccccc3c2)C(=O)C12CCN(Cc1cccc(C)c1)CC2` [Example 272], with 525 nM; and `COCCN1C(=O)N(Cc2cc(OC)cc(OC)c2)C(=O)C12CCN(Cc1cc(OC)cc(OC)c1)CC2` [Example 183], with 230 nM. The same measure, in the same setting: then `COCCN1C(=O)N(Cc2ccc3ccccc3c2)C(=O)C12CCN(Cc1ccc3ccccc3c1)CC2` [Example 250], with 442 nM. For the compound `COCCN1C(=O)N(Cc2cccc(-n3cccc3)c2)C(=O)C12CCN(Cc1ccccc1)CC2` [Example 256], the IC50 turned out to be 469 nM. On the same count and under the same terms, then `CCCOc1ccc(CN2CCC3(CC2)C(=O)N(Cc2cccc(OC)c2)C(=O)N3CCOC)cc1OC` [Example 273], with 528 nM; and `COCCN1C(=O)N(Cc2cccc(OC)c2)C(=O)C12CCN(Cc1cccc3c4ccccc4n(C)c13)CC2` [Example 295], with 580 nM; and `COCCN1C(=O)N(Cc2cccc(OC)c2)C(=O)C12CCN(Cc1cccc3ccccc13)CC2` [Example 128], with 86 nM.

As to `COCCN1C(=O)N(Cc2cccc(OC)c2)C(=O)C12CCN(Cc1cccc(OC(F)(F)F)c1)CC2` [Example 203], the IC50 came to 291 nM. On to `COCCN1C(=O)N(Cc2cccc(OC)c2)C(=O)C12CCN(Cc1nn(-c3ccccc3)nc1C)CC2` [Example 245], for which the 50% inhibitory concentration (IC50) turned out to be 432 nM. The same measure, in the same setting: to `O=C1N(C/C=C/c2ccccc2)C(=O)C2(CCN(Cc3cccc4ccccc34)CC2)N1Cc1ccc(-n2cccn2)cn1` [Example 182] belongs 226 nM.

As for `COc1cccc(CN2C(=O)N(Cc3cccnc3)C3(CCN(Cc4cccc5ccccc45)CC3)C2=O)c1` [Example 173], the 50% inhibitory concentration (IC50) came out at 196 nM.

Consider `COCCN1C(=O)N(Cc2cccc(OC)c2)C(=O)C12CCN(Cc1cc(OC)cc(OC)c1F)CC2` [Example 146], for which the IC50 was determined as 142 nM. Same read-out and setting: then `COc1cc(CN2CCC3(CC2)C(=O)N(C/C=C/c2ccccc2)C(=O)N3Cc2cccc3cccnc23)cc(OC)c1` [Example 201], with 288 nM.

For the compound `COCCN1C(=O)N(CCCC2CCCCC2)C(=O)C12CCN(Cc1ccccc1)CC2` [Example 246], the IC50 was 435 nM. Consider `COCCN1C(=O)N(Cc2cccc(OC)c2)C(=O)C12CCN(Cc1c(Cl)ccc(C)c1F)CC2` [Example 275], for which the IC50 worked out at 532 nM.

In the case of `COCCN1C(=O)N(CCCc2ccccc2)C(=O)C12CCN(Cc1cc(OC)cc(OC)c1)CC2` [Example 188], the IC50 is 246 nM.

With `COCCN1C(=O)N(Cc2cccc(OC)c2)C(=O)C12CCN(Cc1cccc(-c3ccc(NC(C)=O)cc3)c1)CC2` [Example 238], the IC50 turned out to be 414 nM. On the same count and under the same terms, then `COCCN1C(=O)N(C/C=C/c2ccccc2)C(=O)C12CCN(Cc1ccccc1)CC2` [Example 171], with 191 nM; and `CCN1C(=O)N(Cc2ccc3ccccc3c2)C(=O)C12CCN(Cc1cccc(OC)c1)CC2` [Example 214], with 344 nM. Still for that read-out and setting: to `COCCN1C(=O)N(Cc2cccc(OC)c2)C(=O)C12CCN(Cc1ccc3c4c(cccc14)CC3)CC2` [Example 147] belongs 142 nM. For the compound `CCN1C(=O)N(CCCOc2ccccc2)C(=O)C12CCN(Cc1cccc3ccccc13)CC2` [Example 260], the half-maximal inhibitory concentration (IC50) stood at 486 nM. The same measure, in the same setting: then `COCCN1C(=O)N(Cc2ccc3ccccc3c2)C(=O)C12CCN(Cc1ccccc1)CC2` [Example 263], with 498 nM. Take `COc1cccc(CN2C(=O)N(Cc3cccc(OC)c3)C3(CCN(Cc4ccccc4)CC3)C2=O)c1` [Example 297]: the IC50 came out at 586 nM. Still for that read-out and setting: to `COCCN1C(=O)N(Cc2ccc3ccccc3c2)C(=O)C12CCN(Cc1cccc3ccccc13)CC2` [Example 187] belongs 243 nM. The same measure, in the same setting: then `COCCN1C(=O)N(C/C=C/c2ccccc2F)C(=O)C12CCN(Cc1ccccc1)CC2` [Example 165], with 183 nM. For `COCCN1C(=O)N(C/C=C/c2ccccc2)C(=O)C12CCN(Cc1cccc3ccccc13)CC2` [Example 131], the concentration for half-maximal inhibition (IC50) was 100 nM. Consider `COCCN1C(=O)N(Cc2ccccc2)C(=O)C12CCN(Cc1cc(OC)cc(OC)c1)CC2` [Example 196], for which the 50% inhibitory concentration (IC50) was 268 nM. The same measure, in the same setting: then `CCOc1ccccc1CN1CCC2(CC1)C(=O)N(Cc1cccc(OC)c1)C(=O)N2CCOC` [Example 262], with 495 nM. Still for that read-out and setting: then `COCCN1C(=O)N(Cc2cccc(OC)c2)C(=O)C12CCN(Cc1cc3ccccc3nc1Cl)CC2` [Example 227], with 373 nM; and `COc1cccc(CN2C(=O)N(Cc3ccccn3)C3(CCN(Cc4cc(OC)cc(OC)c4)CC3)C2=O)c1` [Example 179], with 215 nM. Same read-out and setting: then `COCCN1C(=O)N(Cc2cccc(OC)c2)C(=O)C12CCN(Cc1c(F)cccc1OC)CC2` [Example 268], with 511 nM; and `COCCN1C(=O)N(Cc2cccc(OC)c2)C(=O)C12CCN(Cc1c(F)ccc(C)c1Cl)CC2` [Example 289], with 567 nM; and `CCc1ccccc1CN1CCC2(CC1)C(=O)N(Cc1cccc(OC)c1)C(=O)N2CCOC` [Example 158], with 164 nM. In the case of `COCCN1C(=O)N(Cc2cccc(OC)c2)C(=O)C12CCN(Cc1cc(OC)ccc1OC)CC2` [Example 269], the IC50 worked out at 513 nM. Same read-out and setting: then `COc1cc(CN2CCC3(CC2)C(=O)N(Cc2cc(OC)cc(OC)c2)C(=O)N3Cc2ccc3c(c2)nnn3C)cc(OC)c1` [Example 281], with 548 nM; and `COCCN1C(=O)N(Cc2cccc(OC)c2)C(=O)C12CCN(Cc1c(C)c(C)cc(C)c1C)CC2` [Example 192], with 260 nM; and `CCN1C(=O)N(Cc2ccc3ccccc3c2)C(=O)C12CCN(Cc1cccc3ccccc13)CC2` [Example 286], with 560 nM.

Usually IC50 stands for the point on the concentration scale where inhibition reaches its midpoint.
